How the values were obtained:
[1] = xn = mol fraction of the nth substance listed; conditions: for surface tension liquid-gas: Wilhelmy plate method; for mass density: 101 kPa, Liquid, Vibrating tube method
[2] = for surface tension liquid-gas: Wilhelmy plate method; for mass density: 101 kPa, Liquid, Vibrating tube method

CCCCn1cc[n+](C)c1.C[C@H](O)C(=O)[O-] [1-butyl-3-methylimidazolium L-lactate] + O
[1]
Conditions	mass density, 298.15 K [kg/m3]	mass density, 308.15 K [kg/m3]	mass density, 318.15 K [kg/m3]	surface tension liquid-gas, 298.15 K [mN/m]	surface tension liquid-gas, 308.15 K [mN/m]	surface tension liquid-gas, 318.15 K [mN/m]
x1 = 0.0097	–	–	–	53.67	51.15	49.79
x1 = 0.0303	–	–	–	47.86	46.42	45.58
x1 = 0.0401	–	–	–	46.95	46.08	45.57
x1 = 0.0602	–	–	–	46.15	45.87	45.55
x1 = 0.0801	–	–	–	46.98	46.54	46.18
x1 = 0.1	–	–	–	46.96	46.83	46.15
x1 = 0.1001	1042.3	1039.4	1036.4	–	–	–
x1 = 0.2001	1061.4	1058.3	1055	46.03	44.94	44.2
x1 = 0.2999	1075	1071	1066.6	–	–	–
x1 = 0.3003	–	–	–	44.61	43.59	42.86
x1 = 0.3985	1083.6	1079.1	1074.1	–	–	–
x1 = 0.3997	–	–	–	44.08	43.16	42.44
x1 = 0.4994	–	–	–	43.46	43.07	42.27
x1 = 0.5023	1090.3	1085.4	1080.2	–	–	–
x1 = 0.5989	–	–	–	43.47	42.87	42.11
x1 = 0.6002	1095.7	1090.2	1084.3	–	–	–
x1 = 0.6982	–	–	–	43.41	42.62	42.02
x1 = 0.6986	1099.8	1093.5	1087.4	–	–	–
x1 = 0.8	1103.3	1096.6	1090.3	–	–	–
x1 = 0.8017	–	–	–	43.35	42.54	42
x1 = 0.8965	–	–	–	43.2	42.48	41.82
x1 = 0.9001	1107.2	1100.3	1093.8	–	–	–
x1 = 1	1111.2	1104.2	1097.7	42.92	42.37	42.01

O [water]
[2]
Conditions	mass density [kg/m3]	surface tension liquid-gas [mN/m]
298.15 K	–	71.85
308.15 K	994.1	70.48
318.15 K	–	68.89

CCCCn1cc[n+](C)c1.C[C@H](O)C(=O)[O-] [1-butyl-3-methylimidazolium L-lactate] + CCO
[1]
Conditions	mass density [kg/m3]	surface tension liquid-gas [mN/m]
298.15 K, x1 = 0.01	–	22.44
298.15 K, x1 = 0.0299	–	22.99
298.15 K, x1 = 0.0497	–	23.47
298.15 K, x1 = 0.0708	–	24
298.15 K, x1 = 0.0944	–	24.54
298.15 K, x1 = 0.0997	897.2	–
298.15 K, x1 = 0.1987	959.5	–
298.15 K, x1 = 0.2001	–	26.97
298.15 K, x1 = 0.3018	–	29.2
298.15 K, x1 = 0.3066	1002	–
298.15 K, x1 = 0.4019	–	31.51
298.15 K, x1 = 0.4106	1028.2	–
298.15 K, x1 = 0.4954	1042.5	–
298.15 K, x1 = 0.499	–	33.45
298.15 K, x1 = 0.5989	1058.4	–
298.15 K, x1 = 0.6216	–	35.27
298.15 K, x1 = 0.6985	1070.8	–
298.15 K, x1 = 0.7009	–	36.3
298.15 K, x1 = 0.7524	–	37.06
298.15 K, x1 = 0.7869	1082.1	–
298.15 K, x1 = 0.8381	–	38.77
298.15 K, x1 = 0.8978	1095.2	–
298.15 K, x1 = 1	1111.2	42.92
308.15 K, x1 = 0.01	–	21.58
308.15 K, x1 = 0.0302	–	22.12
308.15 K, x1 = 0.0474	–	22.62
308.15 K, x1 = 0.0707	–	23.22
308.15 K, x1 = 0.0952	–	23.9
308.15 K, x1 = 0.0997	888.9	–
308.15 K, x1 = 0.1987	951.9	–
308.15 K, x1 = 0.2028	–	26.53
308.15 K, x1 = 0.3026	–	28.8
308.15 K, x1 = 0.3066	994.7	–
308.15 K, x1 = 0.406	–	31.08
308.15 K, x1 = 0.4106	1021.1	–
308.15 K, x1 = 0.4954	1034.3	–
308.15 K, x1 = 0.4966	–	32.88
308.15 K, x1 = 0.5989	1050.4	–
308.15 K, x1 = 0.6053	–	34.78
308.15 K, x1 = 0.6882	–	35.51
308.15 K, x1 = 0.6985	1062.4	–
308.15 K, x1 = 0.7869	1073.8	–
308.15 K, x1 = 0.7888	–	36.81
308.15 K, x1 = 0.8313	–	37.9
308.15 K, x1 = 0.8978	1086.9	–
308.15 K, x1 = 1	1104.2	42.37
318.15 K, x1 = 0.01	–	20.88
318.15 K, x1 = 0.0304	–	21.56
318.15 K, x1 = 0.0448	–	21.9
318.15 K, x1 = 0.0702	–	22.56
318.15 K, x1 = 0.0958	–	23.39
318.15 K, x1 = 0.0997	881.9	–
318.15 K, x1 = 0.1987	944	–
318.15 K, x1 = 0.203	–	26.09
318.15 K, x1 = 0.3032	–	28.36
318.15 K, x1 = 0.3066	987.7	–
318.15 K, x1 = 0.4034	–	30.45
318.15 K, x1 = 0.4106	1014.5	–
318.15 K, x1 = 0.4954	1028.3	–
318.15 K, x1 = 0.5017	–	32.46
318.15 K, x1 = 0.5989	1042.6	–
318.15 K, x1 = 0.6042	–	34.23
318.15 K, x1 = 0.6657	–	34.84
318.15 K, x1 = 0.6985	1055.3	–
318.15 K, x1 = 0.7561	–	35.48
318.15 K, x1 = 0.7869	1066.9	–
318.15 K, x1 = 0.8319	–	36.61
318.15 K, x1 = 0.8978	1079.8	–
318.15 K, x1 = 1	1097.7	42.01

CO [methanol]
[2]
Conditions	mass density [kg/m3]	surface tension liquid-gas [mN/m]
298.15 K	786.4	22.22
308.15 K	776.9	21.46
318.15 K	767.2	20.46

CCCCn1cc[n+](C)c1.C[C@H](O)C(=O)[O-] [1-butyl-3-methylimidazolium L-lactate]
[2]
Conditions	mass density [kg/m3]	surface tension liquid-gas [mN/m]
293.15 K	1115.3	43.14
298.15 K	1111.2	42.92
303.15 K	1107.5	42.79
308.15 K	1104.2	42.37
313.15 K	1100.5	42.19
318.15 K	1097.7	42.01
323.15 K	1094.1	41.64
333.15 K	1086.1	41.04
343.15 K	1079.8	40.56

From the NIST ThermoML archive (doi:10.1016/j.jct.2013.04.015)
